This note sets out measurements from patent US7736624B2, “Methods and compositions for diagnostic and therapeutic targeting of COX-2” (priority 2006, dated 2010).

For one data set, the target named is T1, COX-2 (Homo sapiens, UniProt P35354).
T1 sequence (P35354 18-604): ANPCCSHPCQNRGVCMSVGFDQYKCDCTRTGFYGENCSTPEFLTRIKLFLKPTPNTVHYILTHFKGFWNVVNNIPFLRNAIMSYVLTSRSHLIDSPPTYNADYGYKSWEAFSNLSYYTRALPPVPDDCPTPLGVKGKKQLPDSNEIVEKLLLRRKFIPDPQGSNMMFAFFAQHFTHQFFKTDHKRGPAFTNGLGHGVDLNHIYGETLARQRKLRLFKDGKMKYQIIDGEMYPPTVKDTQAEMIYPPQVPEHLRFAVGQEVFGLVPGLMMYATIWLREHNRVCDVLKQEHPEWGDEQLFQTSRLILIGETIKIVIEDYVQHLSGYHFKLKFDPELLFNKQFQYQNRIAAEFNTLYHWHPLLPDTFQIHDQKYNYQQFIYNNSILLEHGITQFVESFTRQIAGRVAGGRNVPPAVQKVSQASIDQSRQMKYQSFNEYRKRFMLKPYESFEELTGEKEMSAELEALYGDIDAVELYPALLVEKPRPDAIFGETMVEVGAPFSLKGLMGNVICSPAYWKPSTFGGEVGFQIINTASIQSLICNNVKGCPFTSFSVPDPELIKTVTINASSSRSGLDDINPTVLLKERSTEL
Nature of the data set: IC50 determinations using purified enzymes (TLC assay), COX-2. The format is biochemical. More on the design: made in house; host or cells: Sf9 insect cells. The settings on record: assayed against purified enzymes, read-out: IC50 COX-2.

The next data set can be described thus: Fluorescence in buffer. The class given is physicochemical. Particulars: for Fluor. λem: emission; for Fluor. λex: excitation.
In the next data set the target is T2, ovine COX-1 (Ovis aries, UniProt P05979).
T2 construct: can be purified from ovine seminal vesicles by standard procedures; from tissue; host or cells: ovine seminal vesicles
T2 sequence (P05979 25-600): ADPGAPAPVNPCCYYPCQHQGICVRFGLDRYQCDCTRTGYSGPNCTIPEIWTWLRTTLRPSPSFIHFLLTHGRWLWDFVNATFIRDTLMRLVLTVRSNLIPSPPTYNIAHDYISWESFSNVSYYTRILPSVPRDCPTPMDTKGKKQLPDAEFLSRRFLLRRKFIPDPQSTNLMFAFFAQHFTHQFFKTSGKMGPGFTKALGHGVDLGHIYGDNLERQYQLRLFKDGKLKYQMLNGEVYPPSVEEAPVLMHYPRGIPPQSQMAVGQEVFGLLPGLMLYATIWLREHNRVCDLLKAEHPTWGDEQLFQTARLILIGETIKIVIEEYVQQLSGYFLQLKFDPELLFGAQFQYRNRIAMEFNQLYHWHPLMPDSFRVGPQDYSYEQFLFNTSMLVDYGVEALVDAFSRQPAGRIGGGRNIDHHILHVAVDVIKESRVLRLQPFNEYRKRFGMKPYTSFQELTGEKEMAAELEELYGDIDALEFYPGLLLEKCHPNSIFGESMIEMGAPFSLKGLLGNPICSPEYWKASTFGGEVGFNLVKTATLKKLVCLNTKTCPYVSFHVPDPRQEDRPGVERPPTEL
Nature of the data set: IC50 determinations using purified enzymes (TLC assay), COX-1. The format is biochemical. Particulars: assayed against purified enzymes.

Read-outs that look alike come from different tables or passages of the source. Where only a bound is given, the exact number is not on record here.

As usually defined, the IC50 is the concentration that gives 50% inhibition. With `COc1ccc2c(c1)c(CC(=O)NCCNS(=O)(=O)c1ccc(/N=N/c3ccc(N(C)C)cc3)cc1)c(C)n2C(=O)c1ccc(Cl)cc1` [Compound 27aa, N-(2-Dabsylaminoethyl)-2-{1-(4-chlorobenzoyl)-5-methoxy-2-methyl-1H-indol-3-yl}acetamide], on COX-2 (Table 3), the IC50 came to 0.08 µM. Moreover, in “Fluorescence in buffer”, the “Fluor. λem” value was found to be 450 nm and the “Fluor. λex” value is listed as 390 nm. This compound also had an IC50 against ovine COX-1 (Table 3) greater than 25 µM.
In the case of `COc1ccc2c(c1)c(CC(=O)NCCCCNC(=O)c1ccc(C3=c4cc5c6c(c4Oc4c3cc3c7c4CCCN7CCC3)CCC[N+]=6CCC5)c(C(=O)[O-])c1)c(C)n2C(=O)c1ccc(Cl)cc1` [Compound 27eee], the IC50 was 0.7 µM on COX-2 (Table 3) and greater than 25 µM on ovine COX-1 (Table 3).
With `COc1ccc2c(c1)c(CC(=O)NCCCCNC(=O)Cc1ccc(Nc3ccc([N+](=O)[O-])c4nonc34)cc1)c(C)n2C(=O)c1ccc(Cl)cc1` [Compound 27ii, N-([2-{4-(7-nitrobenzo[1,2,5]oxadiazol-4-ylamino)phenyl}acetamido]but-4-yl)-2-{1-(4-chlorobenzoyl)-5-methoxy-2-methyl-1H-indol-3-yl]acetamide], at COX-2 (Table 3), the IC50 was determined as 0.5 µM. Besides, in “Fluorescence in buffer”, the “Fluor. λem” value is given as 605 nm and the “Fluor. λex” value was 492 nm. This compound yielded an IC50 against ovine COX-1 (Table 3) greater than 25 µM.
Consider `COc1ccc2c(c1)c(CC(=O)NCCCCNC(=O)c1ccc(C(=O)O)c(-c3c4ccc(=O)cc-4oc4cc(O)ccc34)c1)c(C)n2C(=O)c1ccc(Cl)cc1` [Compound 27qq, N-[(Fluorescein-6-carboxylamido)but-4-yl]-2-[1-(4-chlorobenzoyl)-5-methoxy-2-methyl-1H-indol-3-yl)acetamide], for which the IC50 on COX-2 (Table 3) and at ovine COX-1 (Table 3) was greater than 25 µM in each case.
Consider `CC[N+](CC)=c1ccc2c(-c3ccccc3)c(C)c(/C=C/C=C3/N(CCCCCC(=O)NCCCCNC(=O)Cc4c(C)n(C(=O)c5ccc(Cl)cc5)c5ccc(OC)cc45)c4ccc(S(=O)(=O)[O-])cc4C3(C)C)oc-2c1` [Compound 27ttt], for which the IC50 at COX-2 (Table 3) is 1 µM. In addition, in the data set “Fluorescence in buffer”, the “Fluor. λem” value turned out to be 731 nm and the “Fluor. λex” value was 710 nm. The IC50 at ovine COX-1 (Table 3) was greater than 25 µM.
`CC[N+](CC)=c1ccc2nc3c(cc(NC(=O)CCOCCOCCOCCOCCNC(=O)Cc4c(C)n(C(=O)c5ccc(Cl)cc5)c5ccc(OC)cc45)c4ccccc43)oc-2c1` [Compound 27uu, N-[5-)1-{1-(4-chlorobenzoyl)-5-methoxy-2-methyl-1H-indol-3-yl}-2-6,9,12,15-tetraoxa-3-azaoctadecanamido]-9H-benzo[a]penoxazin-9-ylidene)-N-ethylethanaminium perchlorate]: the 50% inhibitory concentration (IC50) on COX-2 (Table 3) came out at 1.7 µM. In the data set “Fluorescence in buffer”, the “Fluor. λem” value was determined as 670 nm and the “Fluor. λex” value was 618 nm. This compound registered an IC50 at ovine COX-1 (Table 3) greater than 25 µM.
The like results for `COc1ccc2c(c1)c(CC(=O)NCCCCNC(=O)c1ccc(C(=O)[O-])c(C3=c4cc5c6c(c4Oc4c3cc3c7c4CCCN7CCC3)CCC[N+]=6CCC5)c1)c(C)n2C(=O)c1ccc(Cl)cc1` [Compound 27vv] were, in that order, 3.5 µM, 603 nm, 581 nm and greater than 25 µM.
The like results for `COc1ccc2c(c1)c(CC(=O)NCCNS(=O)(=O)c1cccc3c(N(C)C)cccc13)c(C)n2C(=O)c1ccc(Cl)cc1` [Compound 27x] were, in that order, 0.066 µM, 493 nm, 355 nm and greater than 25 µM.
As to `COC(=O)c1cc(-c2ccc(C)cc2)n(-c2ccc(S(N)(=O)=O)cc2)n1` [Compound 30b], the IC50 is 0.92 µM at COX-2 (Table 2) and greater than 25 µM on ovine COX-1 (Table 2).
